In the supplement of paper PMC10307832:

Key:
Assay in all cases: relative viability (nuclei count vs DMSO), 5 days (fraction); higher = more cells survive
[1] = compound: CC1=C(C=C(C=C1)NC(=O)C2=CC(=CC=C2)C(C)(C)C#N)NC3=CC4=C(C=C3)N=CN(C4=O)C [AZ628] + Cc1nc(NC(=O)N2CCC[C@H]2C(N)=O)sc1-c1ccnc(C(C)(C)C(F)(F)F)c1 [Alpelisib] (partner 2 µM)
Procedure, shortened: (§1)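 Lung cancer cell lines were pin-tool dosed in 1536-well plates on the day after seeding, with either a lone drug or a fixed anchor-drug dose plus five library-drug doses (not always all listed) in √10 steps. Nuclei were counted on 4× images after 5 days. Relative viability is the ratio of treated-well to vehicle-well nuclei counts, with each value a median of duplicate plates.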

[2] = compound: C[As](C)SC[C@H](NC(=O)CC[C@H](N)C(=O)O)C(=O)NCC(=O)O [Darinaparsin] + CC(=O)c1c(C)c2cnc(Nc3ccc(N4CCNCC4)cn3)nc2n(C2CCCC2)c1=O [Palbociclib] (partner 0.5 µM)
Procedure, shortened: as §1

[3] = compound: CC1=C(C=C(C=C1)NC(=O)C2=CC(=CC=C2)C(C)(C)C#N)NC3=CC4=C(C=C3)N=CN(C4=O)C [AZ628] + Nc1ncn([C@H]2C[C@H](O)[C@@H](CO)O2)c(=O)n1 [Decitabine] (partner 2 µM)
Procedure, shortened: as §1

[4] = compound: C[As](C)SC[C@H](NC(=O)CC[C@H](N)C(=O)O)C(=O)NCC(=O)O [Darinaparsin] + O=C(CCCCCCC(=O)Nc1ccccc1)NO [Vorinostat] (partner 1 µM)
Procedure, shortened: as §1

Cell Line | relative viability ([1]; first compound 0.08 µM) | relative viability ([1]; first compound 0.253 µM) | relative viability ([1]; first compound 0.8 µM) | relative viability ([1]; first compound 2.53 µM) | relative viability ([1]; first compound 8 µM) | relative viability ([2]; first compound 0.08 µM) | relative viability ([2]; first compound 0.8 µM) | relative viability ([2]; first compound 2.53 µM) | relative viability ([2]; first compound 8 µM) | relative viability ([3]; first compound 0.08 µM) | relative viability ([3]; first compound 0.253 µM) | relative viability ([3]; first compound 0.8 µM) | relative viability ([3]; first compound 2.53 µM) | relative viability ([3]; first compound 8 µM) | relative viability ([4]; first compound 0.08 µM) | relative viability ([4]; first compound 0.8 µM) | relative viability ([4]; first compound 2.53 µM) | relative viability ([4]; first compound 8 µM)
NCI-H441 | 0.781 | 0.769 | 0.814 | 0.637 | 0.802 | 0.264 | 0.214 | 0.21 | 0.188 | 0.257 | 0.313 | 0.245 | 0.212 | 0.226 | 1.15 | 0.751 | 0.847 | 0.884
NCI-H460 | 0.459 | 0.335 | 0.325 | 0.271 | 0.13 | 0.147 | 0.176 | 0.117 | 0.181 | 0.512 | 0.456 | 0.38 | 0.532 | 0.165 | 1.35 | 0.831 | 0.569 | 1
NCI-H520 | 0.908 | 0.826 | 0.733 | 0.819 | 0.52 | 0.149 | 0.208 | 0.216 | 0.248 | 0.563 | 0.488 | 0.547 | 0.472 | 0.382 | 0.737 | 0.723 | 0.735 | 0.785
NCI-H647 | 1.3 | 0.952 | 0.842 | 1.09 | 0.858 | 0.467 | 0.406 | 0.357 | 0.561 | 0.383 | 0.452 | 0.329 | 0.383 | 0.332 | 0.608 | 0.751 | 0.539 | 0.572
NCI-H650 | 1.32 | 1.44 | 1.38 | 1.29 | 0.939 | 0.325 | 0.331 | 0.339 | 0.322 | 0.349 | 0.396 | 0.46 | 0.335 | 0.336 | 0.335 | 0.408 | 0.427 | 0.423
NCI-H661 | 0.647 | 0.401 | 0.497 | 0.598 | 0.363 | 0.385 | 0.355 | 0.442 | 0.404 | 0.601 | 0.491 | 0.445 | 0.451 | 0.482 | 0.86 | 0.729 | 0.753 | 0.858
NCI-H727 | 0.499 | 0.308 | 0.301 | 0.318 | 0.23 | 0.692 | 0.573 | 0.698 | 0.585 | 0.918 |  |  | 0.644 | 0.345 | 1.24 | 1.14 | 1.16 | 1.36
NCI-H838 | 1.03 | 0.991 | 0.953 | 0.92 | 0.841 | 0.245 | 0.216 | 0.229 | 0.229 | 0.49 | 0.504 | 0.476 | 0.455 | 0.479 | 0.704 | 0.738 | 0.728 | 0.76
NCI-H1355 | 0.849 | 0.742 | 0.737 | 0.685 | 0.558 | 0.445 | 0.398 | 0.322 | 0.387 | 0.414 | 0.322 | 0.381 | 0.344 | 0.265 | 0.703 | 0.617 | 0.488 | 0.683
NCI-H1395 | 1.19 | 1.2 | 1.03 | 0.991 | 0.915 | 0.617 | 0.54 | 0.54 | 0.646 | 0.678 | 0.698 | 0.667 | 0.647 | 0.788 | 0.813 | 0.722 | 0.582 | 0.589
NCI-H1437 | 0.958 | 0.976 | 1.02 | 1.01 | 0.988 | 0.321 | 0.307 | 0.328 | 0.338 | 0.606 | 0.548 | 0.531 | 0.613 | 0.659 | 0.907 | 0.854 | 0.911 | 1.06
NCI-H1651 | 1.12 | 1.02 | 0.84 | 0.884 | 0.995 | 0.515 | 0.531 | 0.527 | 0.522 | 0.67 | 0.571 | 0.653 | 0.683 | 0.593 | 0.523 | 0.558 | 0.58 | 0.571
NCI-H1666 | 0.79 | 0.765 | 0.522 | 0.534 | 0.425 | 0.666 | 0.673 | 0.634 | 0.678 | 0.744 | 0.691 | 0.625 | 0.62 | 0.657 | 1.2 | 0.899 | 1.18 | 1.08
NCI-H1734 | 0.658 | 0.595 | 0.571 | 0.619 | 0.498 | 0.35 | 0.332 | 0.361 | 0.395 | 0.515 | 0.549 | 0.5 | 0.457 | 0.344 | 0.934 | 0.752 | 0.773 | 0.746
NCI-H1755 | 0.923 | 0.878 | 0.887 | 0.822 | 0.792 | 0.483 | 0.457 | 0.46 | 0.469 | 0.763 | 0.691 | 0.718 | 0.73 | 0.676 | 0.791 | 0.606 | 0.817 | 1.05
NCI-H1793 | 0.921 | 0.75 | 0.684 | 0.564 | 0.593 | 0.359 | 0.374 |  | 0.369 | 0.616 | 0.442 | 0.458 | 0.441 | 0.184 | 0.653 | 0.731 |  | 0.911
NCI-H1915 | 1.09 | 1.04 | 0.911 | 0.708 | 0.564 | 0.573 | 0.52 | 0.502 | 0.539 | 0.271 | 0.259 | 0.267 | 0.254 | 0.169 | 0.502 | 0.468 | 0.485 | 0.579
NCI-H1944 | 0.855 | 0.718 | 0.673 | 0.68 | 0.586 | 0.314 | 0.339 | 0.31 | 0.404 | 0.426 | 0.434 | 0.414 | 0.416 | 0.282 | 0.595 | 0.542 | 0.61 | 0.682
NCI-H1975 | 0.603 | 0.701 | 0.594 | 0.66 | 0.328 | 0.693 | 0.634 | 0.504 | 0.606 | 0.402 | 0.358 | 0.344 | 0.338 | 0.265 | 0.875 | 0.728 | 0.741 | 0.854
NCI-H1993 | 0.73 | 0.61 | 0.662 | 0.631 | 0.739 | 0.586 | 0.743 | 0.59 | 0.68 | 0.587 | 0.518 | 0.639 | 0.463 | 0.55 | 0.765 | 0.855 | 0.697 | 0.827
NCI-H2009 | 1.01 | 0.895 | 0.692 | 1.03 | 0.34 | 0.208 | 0.166 | 0.225 | 0.203 | 0.404 | 0.36 | 0.313 | 0.32 | 0.291 | 0.866 | 0.717 | 0.645 | 0.72
NCI-H2023 | 0.653 | 0.558 | 0.617 | 0.688 | 0.324 | 0.393 | 0.333 | 0.344 | 0.431 | 0.292 | 0.229 | 0.24 | 0.228 | 0.252 | 0.662 | 0.554 | 0.707 | 0.666
NCI-H2085 | 1.06 | 0.965 | 1.03 | 0.856 | 0.714 | 0.466 | 0.482 | 0.508 | 0.457 | 0.534 | 0.563 | 0.569 | 0.575 | 0.609 | 0.73 | 0.732 | 0.827 | 0.764
NCI-H2087 | 0.783 | 0.73 | 0.62 | 0.678 | 0.231 | 0.225 | 0.215 | 0.169 | 0.204 | 0.267 | 0.153 | 0.184 | 0.137 | 0.146 | 0.932 | 0.839 | 0.892 | 1.14
NCI-H2126 | 0.819 | 0.734 | 0.83 | 0.783 | 0.653 | 0.371 | 0.344 | 0.352 | 0.334 | 0.567 | 0.571 | 0.632 | 0.606 | 0.593 | 0.77 | 0.687 | 0.743 | 0.708
NCI-H2170 | 0.931 | 0.751 | 0.809 | 0.852 | 0.98 | 0.427 | 0.425 | 0.385 | 0.411 | 0.448 | 0.483 | 0.446 | 0.439 | 0.456 | 0.967 | 0.694 | 0.676 | 1.17
NCI-H2347 | 0.679 | 0.934 | 0.779 | 0.822 | 0.471 | 0.43 | 0.404 | 0.447 | 0.4 | 0.522 | 0.605 | 0.582 | 0.613 | 0.36 | 0.477 | 0.541 | 0.679 | 0.718
NCI-H2405 | 0.313 | 0.447 | 0.444 | 0.352 | 0.406 | 0.532 | 0.492 | 0.473 | 0.606 | 0.552 | 0.53 | 0.488 | 0.495 | 0.408 | 1.07 | 1.02 | 0.924 | 1.12
NCI-H3122 | 0.631 | 0.337 | 0.342 | 0.268 | 0.233 | 0.19 | 0.223 | 0.223 | 0.201 | 0.307 | 0.21 | 0.221 | 0.239 | 0.161 | 1.18 | 1.22 | 0.927 | 1.36
